Consider three compounds from paper PMC7756445, “A Novel Prodrug of a nNOS Inhibitor with Improved Pharmacokinetic Potential” (Chemmedchem, 2020).

One data set concerns mARC. Details: method as in PMID 31790578. As to conditions: known in vivo studies; cited from earlier work.
A further data set can be described thus: PAMPA-GI assay. Details: Papp at 2 h: dose or concentration left out as unconfirmed. As to conditions: for Papp at 2 h: PAMPA; for PAMPA-GI permeability (in words): only at pH 7.4. The method, then:
(§1) The relative passive transcellular diffusion of compounds, expressed as permeability coefficient (Pe), was determined with a permeability equation. ^[45] The permeabilities of 1, 2, and 1400 W were determined at pH 5.0, 6.5, and 7.4 to mimic the physiological conditions of the GI tract (Table 1). […] As the new prodrug was designed for the potential treatment of neurodegenerative diseases, an important parameter is its capability to cross the BBB.
Each donor filtration plate well, carefully impregnated with 5 µL of this solution, was added of 150 μL of […] test compound buffer solutions (phosphate buffer for pH 7.4 and pH 6.5 and hydrochloric acid buffer for pH 1.4). Subsequently, the drug‐filled donor plate was placed onto the acceptor plate prefilled with the same buffer (300 μL) as the acceptor solution. Once replaced the plate lid, the resulting assembled donor‐acceptor plates were incubated at room temperature for 2 h. The concentration in the acceptor and donor solutions were determined by HPLC. The Pe was determined as previously reported. ^[47]
In general terms: PAMPA measures passive passage across an artificial lipid membrane.

A short description of the next data set: PAMPA-BBB assay. The conditions noted are these: for Papp at 18 h: pig, PAMPA. Details: Papp at 18 h: dose or concentration left out as unconfirmed. How it is done:
as §1
PAMPA‐BBB assays were performed following the same procedure described above for PAMPA‐GI. Briefly, an artificial membrane consisting in a porcine polar brain lipid extract mixture (purchased from Avantis Polar Lipids, Alabaster, AL, USA) and an incubation time of 18 h were adopted as experimental conditions.

Data set [1] in a line: Log D and log P by shake-flask method. The format is physicochemical. The conditions noted are these: for logP: shake-flask, as free amine, mean ± SD of three. From the text: The herein presented amidoxime 2 was designed as prodrug of the amidine 1 to improve membrane permeability and oral bioavailability. In this context, the deepening of the physicochemical properties is essential to obtain a favorable pharmacological profile. Therefore, we investigated the lipophilicity, the passive permeation through the human GI tract through the PAMPA assays, and the chemical and enzymatic stabilities in simulated GI fluids and plasma. […] In this study, the lipophilicity of our compounds was determined by means of the “shake‐flask method” and compared to the corresponding values calculated by the software. ^[43] However, for ionizable compounds, the distribution coefficient (log D) should be used instead of log P in the pH range where ionic species exist. ^[44] In this study, log P and log D were calculated (Table 1).
The column was a Waters Symmetry RP‐C18 column (4.6×150 mm, 5 μm). The mobile phase was a mixture of TFA 0.01 M/ACN/(MeOH/THF 90 : 10) 20/52/28 and the flow rate was 0.7 mL/min. The UV detector was set at a length of 254 nm.
Both n‐octanol and aqueous buffer (pH 1.4, 6.5 and 9.4) solutions were saturated of each other. 2 mg of tested compound was dissolved in 500 μL of organic phase and mixed with an equal volume of aqueous buffer by repeated inversions of up to 200 times for 5 min and then allowed to stand for 30 min for the phases to fully separate. Thereafter, the respective phases were analyzed by HPLC.

Another data set has as its system nNOS. Details: method as in PMID 20933416. As to conditions: previously reported; cited from earlier work.
The next data set relates to eNOS. Set-up: method as in PMID 20933416. As to conditions: previously reported; cited from earlier work.
In the next data set the test system is iNOS. Details: method as in PMID 20933416. The conditions noted are these: previously reported; cited from earlier work.
Where [2] appears, read: porcine polar brain lipid, 18 h.

Like-named read-outs stand apart in the source and are kept apart here.

Regarding `NC(=NO)c1ccccc1` [BAO, benzamidoxime], the “conversion to the corresponding benzamidine in vivo” value in the data set with mARC is on record as “completely converted”.

Broadly, the Papp is a coefficient for how fast a substance crosses the barrier. A word on the logP: it is the decadic logarithm of the partition coefficient of the neutral form, usually between octanol and water. Consider `CC(=N)NCc1cccc(CN)c1` [1400 W, reference compound], for which the apparent permeability (Papp) at 2 h in “PAMPA-GI assay” (pH 1.4) came out at 0.98 ×10⁻⁶ cm/s; in “PAMPA-GI assay” (pH 6.5), 1.02 ×10⁻⁶ cm/s; in the data set “PAMPA-GI assay” (pH 7.4), 1.86 ×10⁻⁶ cm/s. Also, the “PAMPA-GI permeability (in words)” value in the data set “PAMPA-GI assay” was “good permeability”. For the same compound, in “PAMPA-BBB assay”, the Papp at 18 h is 1.49 ×10⁻⁶ cm/s. In “PAMPA-BBB assay” (setting [2]), the PAMPA-BBB permeation class result is “CNS− (CNS− (indicative of low BBB permeation): Pe <2.0)”. In addition, the logD in data set [1] (n-octanol/aqueous buffer pH 1.4, mean ± SD of three, read-out: log D 1.4) was -1.82; in data set [1] (n-octanol/aqueous buffer pH 6.5, mean ± SD of three, read-out: log D 6.5), -1.78; in data set [1] (n-octanol/aqueous buffer pH 9.4, mean ± SD of three, read-out: log D 9.4), -1.66. The logP in data set [1] (n-octanol/aqueous buffer) was -1.66.

By IC50 is commonly meant the point on the concentration scale where inhibition reaches its midpoint. As a reminder, the melting point is the temperature of the solid-liquid transition. In the case of `Br.CC(=N)NC(c1ccccc1)c1ccccc1` [Compound 1, 1‐(benzhydrylamino)ethaniminium bromide], the melting point lay in the range of 278 to 280 °C. In addition, the half-maximal inhibitory concentration (IC50) in the data set with nNOS was 300 nM. In the data set on eNOS, the eNOS/nNOS selectivity is 1166 folds. In “PAMPA-GI assay” (pH 1.4), this compound displayed an apparent permeability coefficient (Papp) at 2 h of 0.57 ×10⁻⁶ cm/s. This compound yielded a Papp at 2 h in “PAMPA-GI assay” (pH 6.5) of 1.02 ×10⁻⁶ cm/s. The compound also registered an apparent permeability (Papp) at 2 h in the data set “PAMPA-GI assay” (pH 7.4) of 1.88 ×10⁻⁶ cm/s. Further, the “PAMPA-GI permeability (in words)” value in the data set “PAMPA-GI assay” is listed as “good permeability”. Moreover, the iNOS/nNOS selectivity in the data set on iNOS is 100 folds. Further, in “PAMPA-BBB assay” (PAMPA-BBB permeability Pe, porcine polar brain lipid, 18 h), the apparent permeability coefficient (Papp) at 18 h was 2.7 ×10⁻⁶ cm/s. The PAMPA-BBB permeation class entry in “PAMPA-BBB assay” (setting [2]) is listed as “CNS± (CNS± (discrete BBB permeation): Pe from 4.0 to 2.0)”. For the same compound, the logD in data set [1] (n-octanol/aqueous buffer, pH 1.4, n-octanol/aqueous buffer pH 1.4, mean ± SD of three, read-out: log D 1.4) was -0.85. The logD in data set [1] (n-octanol/aqueous buffer, pH 6.5, n-octanol/aqueous buffer pH 6.5, mean ± SD of three, read-out: log D 6.5) is -0.31. The logD in data set [1] (n-octanol/aqueous buffer, pH 9.4, n-octanol/aqueous buffer pH 9.4, mean ± SD of three, read-out: log D 9.4) is 0.75. This compound also registered a lipophilicity (logP) in data set [1] (n-octanol/aqueous buffer) of 2.54.
